# According to patent publication US20110130375A1 (priority 2008, published 2011):
# Legend:
# [1] = test system: isolated rabbit thoracic aorta preparations; assay: Assay on vascular tone (vasorelaxation of methoxamine-precontracted aortic rings); format: cell-based; conditions: for EC50: Oryctolagus cuniculus, read-out: EC50 (concentration producing 50% of the maximum relaxation)
# Method: The ability of the compounds of the invention to induce vasorelaxation in comparison to precursor compound, was tested in vitro in isolated rabbit thoracic aorta preparations (Wanstall J. C. et al., Br. J. Pharmacol., 134:463-472, 2001).
# Male New Zealand rabbits (1, 8-2 Kg) were used. The animals were anaesthetized with sodium thiopental (50 mg/kg, iv), sacrificed by exsanguinations and then the thorax was opened and the aorta dissected. The aortas were placed immediately in Krebs-HEPES buffer (pH 7.4; composition mM: NaCl 130.0, KCl 3.7, NaHCO3 14.9, KH2PO4 1.2, MgSO4⊙7H2O 1.2, Glucose 11.0, HEPES 10.0, CaCl2.2H2O 1.6) and cut into ring segments (4-5 mm in length). Each ring was placed in a 5 ml tissue bath filled with Krebs-HEPES buffer (37° C.) aerated with 95% O2 and 5% CO2 and was then attached to a force transducer (Grass FT03), connected to a BIOPAC MP150 System for measurement of the isometric tension^2. The preparations were allowed to equilibrate for 1 h at a resting tension of 2 g with changes of the buffer every 15 minutes and then stimulated by exposure to 90 mM KCl (3 times) with intervening washings. After equilibration, the rings were precontracted submaximally with methoxamine (3 μM) and, when the contraction reach a steady state a cumulative concentration-response curve to the test compounds was obtained. The time intervals between doses were based on the time needed to reach a full a steady state response.
# Responses to test compounds were expressed as a percentage of residual contraction and plotted against concentration of test compound. EC50 values (where EC50 is the concentration producing 50% of the maximum relaxation to the test compound) were interpolated from these plots.
# [2] = test system: corticosteroid-induced glaucoma; conditions: rabbit, administered topically twice a day; cited from earlier work
SMILES,EC50 [1] [µM],also measured
"C[C@H]1CC2C3CCC4=CC(=O)C=C[C@]4(C)[C@@]3(F)[C@@H](O)C[C@]2(C)[C@@]1(OC(=O)CCCO[N+](=O)[O-])C(=O)COC(=O)CCCO[N+](=O)[O-] (stereo partly drawn) [Compound (2), (9R,10S,11S,13S,16S,17R)-9-fluoro-11-hydroxy-10,13,16-trimethyl-17-(2-(4-(nitrooxy)butanoyloxy)acetyl)-3-oxo-6,7,8,9,10,11,12,13,14,15,16,17-dodecahydro-3H-cyclopenta[a]phenanthren-17-yl 4-(nitrooxy)butanoate]",1.68 ± 0.61,
"COc1cc(C(=O)OCCCCO[N+](=O)[O-])ccc1OC(=O)OCC(=O)[C@@]1(OC(=O)CCCO[N+](=O)[O-])[C@@H](C)CC2C3CCC4=CC(=O)C=C[C@]4(C)[C@@]3(F)[C@@H](O)C[C@@]21C (stereo partly drawn) [Compound (3), 4-(nitrooxy)butyl 4-((2-((9R,10S,11S,13S,16S,17R)-9-fluoro-11-hydroxy-10,13,16-trimethyl-17-(4-(nitrooxy)butanoyloxy)-3-oxo-6,7,8,9,10,11,12,13,14,15,16,17-dodecahydro-3H-cyclopenta[a]phenanthren-17-yl)-2-oxoethoxy)carbonyloxy)-3-methoxybenzoate]",1.14 ± 0.48,
"C[C@H]1C[C@H]2[C@@H]3CCC4=CC(=O)C=C[C@]4(C)[C@@]3(F)[C@@H](O)C[C@]2(C)[C@@]1(O)C(=O)CO [betamethasone, Betamethasone]",,"EC50 (concentration producing 50% of the maximum relaxation) ([1]; rabbit aortic rings precontracted with methoxamine (3 μM), cumulative concentration-response curve): no effect"
C[C@@H]1C[C@H]2[C@@H]3CCC4=CC(=O)C=C[C@]4(C)[C@@]3(F)[C@@H](O)C[C@]2(C)[C@@]1(O)C(=O)COC(=O)c1ccc(CO[N+](=O)[O-])cc1 [dexamethasone 21-[(4-nitrooxymethyl)]benzoate],,"effects in corticosteroid-induced glaucoma (intraocular pressure, retro bulbar circulation, ciliary body morphology) [2]: may prevent the intraocular pressure increase, the impairment of retro bulbar circulation, and the morphological changes in the ciliary bodies"
